Assay results from patent publication US20250269072A1, “PROCESSES FOR PREPARING RADIOLABELLED CONJUGATES” (CENTENARY INSTITUTE OF CANCER MEDICINE AND CELL BIOLOGY, priority 2021, published 2025).
“And” between values parts separate entries of the source, which are not always exact repeats. Equal values may be shown once. “Also recorded” adds a separate entry of the source.

Tests used:
[1] = Human radiation dosimetry estimated from rat biodistribution (OLINDA/EXM); assay type: in vivo, human (standard adult male); settings: from rat data
Description: For the voiding bladder model it was assumed that patients would void 1 hour following administration.

Human studies: safety = assay type: in vivo; settings: patients 1-4, 200-207 MBq
From the text: patient with squamous cell carcinoma of the oesophagus • 2. Person with metastatic ovarian carcinoma • 3. Person with metastatic cutaneous squamous cell carcinoma • 4. Person with invasive ductal breast carcinoma.

[2] = In-human study of ^68Ga-CDI: safety and tolerability; assay type: in vivo; settings: 5 subjects
From the text: This open label, single arm interventional study recruited subjects with histologically or cytologically confirmed solid malignancy with at least one measurable lesion >2 cm. The study was approved by the South Eastern Sydney Local Health District Human Research Ethics committee (2019/ETH04821) and all subjects signed an informed consent form. […] Within 28 days of undergoing the study subjects were screened to ensure they met inclusion and exclusion criteria and written consent obtained. Although not an inclusion criteria for participation in this study, all patients also underwent an FDG PET CT between 3-11 days prior to CDI PET CT as part of standard of care.
Subjects were encouraged to be well orally hydrated prior to ^68Ga-CDI administration, otherwise there was no preparation required. Two intravenous cannulas were placed (one for administration of ^68Ga-CDI and the other blood sampling during the study). Immediately prior to ^68Ga-CDI administration clinical assessment of participants was performed, vital signs (blood pressure, heart rate, respiratory rate, arterial oxygen saturation and temperature) measured and a 12-lead electrocardiogram (ECG) obtained and QTc calculated according to Bazett's formula to confirm eligibility. ^68Ga-CDI was administered as an intravenous bolus.
During and immediately following completion of the scanning protocol, subjects were clinically assessed for adverse reactions and vital signs measured. Blood was collected for venous radioactivity measurements at 1, 2 and 3 hours following ^68Ga-CDI administration. Subjects were asked to void between 1.5 to 2 h and 2.75 to 3 h after ^68Ga-CDI administration, urine collected, the volume measured, and an aliquot counted in a gamma counter to determine activity concentration. Following completion of the scanning protocol, ECG was recorded, and blood collected for biochemical and haematological assessment.
On the day following the ^68Ga-CDI PET CT subjects were clinically assessed for adverse reactions, vital signs, ECG obtained, and blood collected for biochemical and haematological assessment. […]

## O=C(O)CNC(=O)[C@H](CSCC(=O)Nc1ccc([As](O)O)cc1)NC(=O)CC[C@H](NC(=O)CCC1C(=O)[O][68Ga]2[O]C(=O)CN3CCN(CCN1CC3)CC(=O)[O]2)C(=O)O (stereo partly shown) [^68Ga-NODAGA-GSAO]
[1]; Adrenals
  Alpha dose: 0.00E000 mSv/MBq
  Beta dose: 2.13E−03 mSv/MBq
  ED Cont.: 2.01E−05 mSv/MBq
  Total dose: 4.02E−03 mSv/MBq
[1]; Brain
  Alpha dose: 0.00E000 mSv/MBq
  Beta dose: 8.15E−04 mSv/MBq
  ED Cont.: 6.94E−06 mSv/MBq
  Total dose: 1.39E−03 mSv/MBq
[1]; Breasts
  Alpha dose: 0.00E000 mSv/MBq
  Beta dose: 2.13E−03 mSv/MBq
  ED Cont.: 1.51E−04 mSv/MBq
  Total dose: 3.02E−03 mSv/MBq
[1]; Gallbladder Wall
  Alpha dose: 0.00E000 mSv/MBq
  Beta dose: 2.13E−03 mSv/MBq
  ED Cont.: 0.00E000 mSv/MBq
  Total dose: 4.28E−03 mSv/MBq
[1]; Heart Wall
  Alpha dose: 0.00E000 mSv/MBq
  Beta dose: 3.09E−03 mSv/MBq
  ED Cont.: 0.00E000 mSv/MBq
  Photon dose: 1.55E−03 mSv/MBq
  Total dose: 4.65E−03 mSv/MBq
[1]; Kidneys
  Alpha dose: 0.00E000 mSv/MBq
  Beta dose: 2.27E−02 mSv/MBq
  ED Cont.: 1.31E−04 mSv/MBq
  Photon dose: 3.56E−03 mSv/MBq
  Total dose: 2.62E−02 mSv/MBq
[1]; LLI Wall
  Alpha dose: 0.00E000 mSv/MBq
  Beta dose: 2.13E−03 mSv/MBq
  ED Cont.: 8.67E−04 mSv/MBq
  Total dose: 7.23E−03 mSv/MBq
[1]; Liver
  Alpha dose: 0.00E000 mSv/MBq
  Beta dose: 4.76E−03 mSv/MBq
  ED Cont.: 3.40E−04 mSv/MBq
  Photon dose: 2.04E−03 mSv/MBq
  Total dose: 6.80E−03 mSv/MBq
[1]; Lungs
  Alpha dose: 0.00E000 mSv/MBq
  Beta dose: 5.42E−03 mSv/MBq
  ED Cont.: 8.16E−04 mSv/MBq
  Total dose: 6.80E−03 mSv/MBq
[1]; Muscle
  Alpha dose: 0.00E000 mSv/MBq
  ED Cont.: 2.09E−05 mSv/MBq
  Total dose: 4.18E−03 mSv/MBq
[1]; Osteogenic Cells
  Alpha dose: 0.00E000 mSv/MBq
  Beta dose: 3.31E−03 mSv/MBq
  ED Cont.: 4.98E−05 mSv/MBq
  Total dose: 4.98E−03 mSv/MBq
[1]; Ovaries
  Alpha dose: 0.00E000 mSv/MBq
  Beta dose: 2.13E−03 mSv/MBq
  ED Cont.: 1.40E−03 mSv/MBq
  Total dose: 7.02E−03 mSv/MBq
[1]; Pancreas
  Alpha dose: 0.00E000 mSv/MBq
  Beta dose: 3.87E−03 mSv/MBq
  ED Cont.: 2.95E−05 mSv/MBq
  Total dose: 5.90E−03 mSv/MBq
[1]; Red Marrow
  Alpha dose: 0.00E000 mSv/MBq
  Beta dose: 1.49E−03 mSv/MBq
  ED Cont.: 4.05E−04 mSv/MBq
  Total dose: 3.38E−03 mSv/MBq
[1]; Skin
  Alpha dose: 0.00E000 mSv/MBq
  Beta dose: 2.13E−03 mSv/MBq
  ED Cont.: 3.19E−05 mSv/MBq
  Total dose: 3.19E−03 mSv/MBq
[1]; Small Intestine
  Alpha dose: 0.00E000 mSv/MBq
  Beta dose: 5.18E−03 mSv/MBq
  ED Cont.: 4.10E−05 mSv/MBq
  Photon dose: 3.03E−03 mSv/MBq
  Total dose: 8.21E−03 mSv/MBq
[1]; Spleen
  Alpha dose: 0.00E000 mSv/MBq
  Beta dose: 4.05E−03 mSv/MBq
  ED Cont.: 2.95E−05 mSv/MBq
  Total dose: 5.91E−03 mSv/MBq
[1]; Stomach Wall
  Alpha dose: 0.00E000 mSv/MBq
  Beta dose: 2.61E−03 mSv/MBq
  ED Cont.: 5.06E−04 mSv/MBq
  Photon dose: 1.61E−03 mSv/MBq
  Total dose: 4.22E−03 mSv/MBq
[1]; Testes
  Alpha dose: 0.00E000 mSv/MBq
  Beta dose: 2.21E−03 mSv/MBq
  ED Cont.: 0.00E000 mSv/MBq
  Total dose: 5.69E−03 mSv/MBq
[1]; Thymus
  Alpha dose: 0.00E000 mSv/MBq
  Beta dose: 4.48E−03 mSv/MBq
  ED Cont.: 2.92E−05 mSv/MBq
  Total dose: 5.84E−03 mSv/MBq
[1]; Thyroid
  Alpha dose: 0.00E000 mSv/MBq
  Beta dose: 2.13E−03 mSv/MBq
  ED Cont.: 1.64E−04 mSv/MBq
  Total dose: 3.28E−03 mSv/MBq
[1]; Total Body
  Alpha dose: 0.00E000 mSv/MBq
  Beta dose: 2.68E−03 mSv/MBq
  ED Cont.: 0.00E000 mSv/MBq
  Total dose: 4.61E−03 mSv/MBq
[1]; ULI Wall
  Alpha dose: 0.00E000 mSv/MBq
  Beta dose: 2.53E−03 mSv/MBq
  ED Cont.: 2.58E−05 mSv/MBq
  Photon dose: 2.63E−03 mSv/MBq
  Total dose: 5.18E−03 mSv/MBq
[1]; Urinary Bladder Wall
  Alpha dose: 0.00E000 mSv/MBq
  Beta dose: 2.84E−01 mSv/MBq
  ED Cont.: 1.62E−02 mSv/MBq
  Total dose: 3.24E−01 mSv/MBq
[1]; Uterus
  Alpha dose: 0.00E000 mSv/MBq
  Beta dose: 2.13E−03 mSv/MBq
  ED Cont.: 5.77E−05 mSv/MBq
  Total dose: 1.15E−02 mSv/MBq
[1]
  dose to urinary bladder wall (dose limiting organ): 0.32 mSv/MBq
  whole body effective dose: 2.13E-02 mSv/MBq and 0.021 mSv/MBq
[1]; injected activity 150 MBq
  whole body effective dose: 3.2 mSv
Human studies: safety
  adverse events: no related or unrelated serious adverse events or adverse events; also recorded: safe, well-tolerated and without adverse effects
[2]
  adverse or pharmacologic effects: no adverse or clinically detectable pharmacologic effects
  vital signs, laboratory studies, electrocardiograms: No significant changes
[2]; 205±4.1 MBq i.v.
  tolerability: well tolerated
